Measured values reported in PubChem BioAssay AID1259407 (Chemical Carcinogenesis Research Information System (CCRIS), 2018).
Calls of active or inactive are those of the source. How the calls were made is not given here.

System: CCRIS mutagenicity, Ames/micronucleus/aberration tests
Assay: CCRIS mutagenicity studies
[1] = Test System: AMES SALMONELLA TYPHIMURIUM, Strain/Indicator: TA98, Metabolic Activation: NONE, Method: PREINCUBATION
[2] = Test System: AMES SALMONELLA TYPHIMURIUM, Strain/Indicator: TA100, Metabolic Activation: HAMSTER, LIVER, S-9, AROCLOR 1254 (10%), Method: PREINCUBATION
[3] = Test System: AMES SALMONELLA TYPHIMURIUM, Strain/Indicator: TA100, Metabolic Activation: NONE, Method: PREINCUBATION
[4] = Test System: AMES SALMONELLA TYPHIMURIUM, Strain/Indicator: TA1535, Metabolic Activation: NONE, Method: PREINCUBATION
[5] = Test System: AMES SALMONELLA TYPHIMURIUM, Strain/Indicator: TA1537, Metabolic Activation: NONE, Method: PREINCUBATION
[6] = Test System: AMES SALMONELLA TYPHIMURIUM, Strain/Indicator: TA97, Metabolic Activation: NONE, Method: PREINCUBATION

In the case of `C=C(C)C(=O)OCCCCCCCCCC`, the mutagenic call (Test System: AMES SALMONELLA TYPHIMURIUM, Strain/Indicator: TA98, Metabolic Activation: HAMSTER, LIVER, S-9, AROCLOR 1254 (10%), Method: PREINCUBATION) is reported as “inactive; negative”, the mutagenic call [1] is reported as “inactive; negative” and the mutagenic call (Test System: AMES SALMONELLA TYPHIMURIUM, Strain/Indicator: TA98, Metabolic Activation: RAT, LIVER, S-9, AROCLOR 1254 (10%), Method: PREINCUBATION) is reported as “inactive; negative”. The mutagenic call [2] was “inactive; negative”, the mutagenic call [3] was “inactive; negative” and the mutagenic call (Test System: AMES SALMONELLA TYPHIMURIUM, Strain/Indicator: TA100, Metabolic Activation: RAT, LIVER, S-9, AROCLOR 1254 (10%), Method: PREINCUBATION) was “inactive; negative”. The mutagenic call (Test System: AMES SALMONELLA TYPHIMURIUM, Strain/Indicator: TA1535, Metabolic Activation: HAMSTER, LIVER, S-9, AROCLOR 1254 (10%), Method: PREINCUBATION) was “inactive; negative”, the mutagenic call [4] was “inactive; negative” and the mutagenic call (Test System: AMES SALMONELLA TYPHIMURIUM, Strain/Indicator: TA1535, Metabolic Activation: RAT, LIVER, S-9, AROCLOR 1254 (10%), Method: PREINCUBATION) was “inactive; negative”. For the same compound, the mutagenic call (Test System: AMES SALMONELLA TYPHIMURIUM, Strain/Indicator: TA1537, Metabolic Activation: HAMSTER, LIVER, S-9, AROCLOR 1254 (10%), Method: PREINCUBATION) was “inactive; negative”, the mutagenic call [5] was “inactive; negative” and the mutagenic call (Test System: AMES SALMONELLA TYPHIMURIUM, Strain/Indicator: TA1537, Metabolic Activation: RAT, LIVER, S-9, AROCLOR 1254 (10%), Method: PREINCUBATION) was “inactive; negative”.
For `O=S(=O)(O)OOS(=O)(=O)O`, the mutagenic call [6] was “inactive; negative”, the mutagenic call (Test System: AMES SALMONELLA TYPHIMURIUM, Strain/Indicator: TA97, Metabolic Activation: RAT, LIVER, S-9, AROCLOR 1254, Method: PREINCUBATION) was “inactive; negative” and the mutagenic call [1] was “inactive; negative”. The mutagenic call (Test System: AMES SALMONELLA TYPHIMURIUM, Strain/Indicator: TA98, Metabolic Activation: RAT, LIVER, S-9, KC 500, Method: PREINCUBATION) was “inactive; negative”, the mutagenic call [3] was “inactive; negative” and the mutagenic call (Test System: AMES SALMONELLA TYPHIMURIUM, Strain/Indicator: TA100, Metabolic Activation: RAT, LIVER, S-9, KC 500, Method: PREINCUBATION) was “inactive; negative”. For the same compound, the mutagenic call (Test System: AMES SALMONELLA TYPHIMURIUM, Strain/Indicator: TA102, Metabolic Activation: NONE, Method: PREINCUBATION) was “inactive; negative”, the mutagenic call (Test System: AMES SALMONELLA TYPHIMURIUM, Strain/Indicator: TA102, Metabolic Activation: RAT, LIVER, S-9, AROCLOR 1254, Method: PREINCUBATION) was “inactive; negative” and the mutagenic call [4] was “inactive; negative”. The mutagenic call (Test System: AMES SALMONELLA TYPHIMURIUM, Strain/Indicator: TA1535, Metabolic Activation: RAT, LIVER, S-9, KC 500, Method: PREINCUBATION) was “inactive; negative”, the mutagenic call [5] was “inactive; negative” and the mutagenic call (Test System: AMES SALMONELLA TYPHIMURIUM, Strain/Indicator: TA1537, Metabolic Activation: RAT, LIVER, S-9, KC 500, Method: PREINCUBATION) was “inactive; negative”. For the same compound, the mutagenic call (Test System: AMES SALMONELLA TYPHIMURIUM, Strain/Indicator: TA1538, Metabolic Activation: NONE, Method: PREINCUBATION) was “inactive; negative”, the mutagenic call (Test System: AMES SALMONELLA TYPHIMURIUM, Strain/Indicator: TA1538, Metabolic Activation: RAT, LIVER, S-9, KC 500, Method: PREINCUBATION) was “inactive; negative” and the mutagenic call (Test System: E. COLI, Strain/Indicator: WP2 UVRA, Metabolic Activation: NONE, Method: PREINCUBATION) was “inactive; negative”. The mutagenic call (Test System: E. COLI, Strain/Indicator: WP2 UVRA, Metabolic Activation: RAT, LIVER, S-9, KC 500, Method: PREINCUBATION) was “inactive; negative”.
For `CCn1cc(C(=O)O)c(=O)c2ccc(C)nc21`, the mutagenic call (End Point: In vitro micronucleus, Test System: WTK-1 human lymphoma cells, Metabolic Activation: None) was “inactive; negative”, the mutagenic call (Test System: AMES SALMONELLA TYPHIMURIUM, Strain/Indicator: TA97, Metabolic Activation: HAMSTER, LIVER, S-9, AROCLOR 1254 (10% OR 30%), Method: PREINCUBATION) was “inactive; negative” and the mutagenic call (Test System: AMES SALMONELLA TYPHIMURIUM, Strain/Indicator: TA97, Metabolic Activation: HAMSTER, LIVER, S-9, AROCLOR 1254 (10 OR 30%), Method: PREINCUBATION) was “inactive; negative”. For the same compound, the mutagenic call [6] was “inactive; negative”, the mutagenic call (Test System: AMES SALMONELLA TYPHIMURIUM, Strain/Indicator: TA97, Metabolic Activation: RAT, LIVER, S-9, AROCLOR 1254 (10% OR 30%), Method: PREINCUBATION) was “inactive; negative” and the mutagenic call (Test System: AMES SALMONELLA TYPHIMURIUM, Strain/Indicator: TA97, Metabolic Activation: RAT, LIVER, S-9, AROCLOR 1254 (10 OR 30%), Method: PREINCUBATION) was “inactive; negative”. The mutagenic call (Test System: AMES SALMONELLA TYPHIMURIUM, Strain/Indicator: TA98, Metabolic Activation: HAMSTER, LIVER, S-9, AROCLOR 1254 (10% OR 30%), Method: PREINCUBATION) was “inactive; negative”, the mutagenic call (Test System: AMES SALMONELLA TYPHIMURIUM, Strain/Indicator: TA98, Metabolic Activation: HAMSTER, LIVER, S-9, AROCLOR 1254 (10 OR 30%), Method: PREINCUBATION) was “inactive; negative” and the mutagenic call [1] was “inactive; negative”. The mutagenic call (Test System: AMES SALMONELLA TYPHIMURIUM, Strain/Indicator: TA98, Metabolic Activation: RAT, LIVER, S-9, AROCLOR 1254 (10% OR 30%), Method: PREINCUBATION) was “inactive; negative”, the mutagenic call (Test System: AMES SALMONELLA TYPHIMURIUM, Strain/Indicator: TA98, Metabolic Activation: RAT, LIVER, S-9, AROCLOR 1254 (10 OR 30%), Method: PREINCUBATION) was “inactive; negative” and the mutagenic call [2] was “inactive; negative”. The mutagenic call (Test System: AMES SALMONELLA TYPHIMURIUM, Strain/Indicator: TA100, Metabolic Activation: HAMSTER, LIVER, S-9, AROCLOR 1254 (30%), Method: PREINCUBATION) was “inactive; negative”, the mutagenic call [3] was “inactive; negative” and the mutagenic call (Test System: AMES SALMONELLA TYPHIMURIUM, Strain/Indicator: TA100, Metabolic Activation: RAT, LIVER, S-9, AROCLOR 1254 (10% OR 30%), Method: PREINCUBATION) was “inactive; negative”. The mutagenic call (Test System: AMES SALMONELLA TYPHIMURIUM, Strain/Indicator: TA100, Metabolic Activation: RAT, LIVER, S-9, AROCLOR 1254 (10 OR 30%), Method: PREINCUBATION) was “inactive; negative”, the mutagenic call (Test System: AMES SALMONELLA TYPHIMURIUM, Strain/Indicator: TA102, Metabolic Activation: NONE, Method: STANDARD PLATE) was “active; positive” and the mutagenic call (Test System: AMES SALMONELLA TYPHIMURIUM, Strain/Indicator: TA1535, Metabolic Activation: HAMSTER, LIVER, S-9, AROCLOR 1254 (10% OR 30%), Method: PREINCUBATION) was “inactive; negative”. The mutagenic call (Test System: AMES SALMONELLA TYPHIMURIUM, Strain/Indicator: TA1535, Metabolic Activation: HAMSTER, LIVER, S-9, AROCLOR 1254 (10 OR 30%), Method: PREINCUBATION) was “inactive; negative”, the mutagenic call [4] was “inactive; negative” and the mutagenic call (Test System: AMES SALMONELLA TYPHIMURIUM, Strain/Indicator: TA1535, Metabolic Activation: RAT, LIVER, S-9, AROCLOR 1254 (10% OR 30%), Method: PREINCUBATION) was “inactive; negative”. The mutagenic call (Test System: AMES SALMONELLA TYPHIMURIUM, Strain/Indicator: TA1535, Metabolic Activation: RAT, LIVER, S-9, AROCLOR 1254 (10 OR 30%), Method: PREINCUBATION) was “inactive; negative”, the mutagenic call (Test System: AMES SALMONELLA TYPHIMURIUM, Strain/Indicator: TA2638, Metabolic Activation: NONE, Method: STANDARD PLATE) was “inactive; negative” and the mutagenic call (Test System: CHINESE HAMSTER V-79, Strain/Indicator: V-79 (HPRT)/6-THIOGUANINE, Metabolic Activation: NONE) was “inactive; negative”. The mutagenic call (Test System: E. COLI, Strain/Indicator: WP2 (PKM101), Metabolic Activation: NONE, Method: STANDARD PLATE) was “active; positive”, the mutagenic call (Test System: E. COLI, Strain/Indicator: WP2 UVRA (PKM101), Metabolic Activation: NONE, Method: STANDARD PLATE) was “active; positive” and the mutagenic call (Test System: MOUSE LYMPHOMA, Strain/Indicator: L5178Y (HPRT)/6-THIOGUANINE, Metabolic Activation: NONE, Method: FLUCTUATION TEST) was “inactive; negative”. For the same compound, the mutagenic call (Test System: MOUSE LYMPHOMA, Strain/Indicator: L5178Y (TK+/TK-), Metabolic Activation: NONE, Method: FLUCTUATION TEST) was “inactive; negative”, the mutagenic call (Test System: MOUSE LYMPHOMA, Strain/Indicator: L5178Y (TK+/TK-), Metabolic Activation: NONE, Method: SUSPENSION/PLATE) was “inactive; negative” and the mutagenic call (Test System: MOUSE LYMPHOMA, Strain/Indicator: L5178Y (TK+/TK-), Metabolic Activation: RAT, LIVER, S-9, AROCLOR 1254, Method: SUSPENSION/PLATE) was “inactive; negative”.
